Test [1] relates to anti-proliferative effect of sepsis patients sera on HMEC-1. Type of test: cell-based, human. As to conditions: HMEC-1, test compounds 200 μg ml^−1, FIG. 9d. As for the experimental part: Detection and analysis of cytotoxicity of septic patient sera for endothelial cells. To measure the cytotoxic activity of septic patients sera for endothelial cells in-vitro, HMEC-1 were seeded into 96-well plates at 2.5×10^4 well^−1 in medium and grown at 37° C. in 5% CO2 for 48 h prior to the addition of 50 μl of patient serum in the presence/absence of DNase I (10 μg ml^−1), anti-human histone 3 and histone 4 rabbit pAbs (200 μg ml^−1) (BioVision), or test compounds (200 μg ml^−1) and incubated for 3 h. ^3H-thymidine (0.5 μCi, MP Biomedical) was then added to each culture well in 20 μl of HMEC-1 medium and incubated for a further 24 h. At the conclusion of the incubation period plates were subjected to 3 freeze/thaw cycles (−70° C. for 30 min, then 37±0.5° C. for 30 min) prior to harvesting and measurement of ^3H-thymidine incorporation. […] Filters were dried at 80° C. and placed in Omnifilter plates (Perkin Elmer) then 20 μl of Microscint-O scintillation fluid (Perkin Elmer) was added to each well and the plate sealed with TopSeal-A adhesive film (Perkin Elmer). ^3H-thymidine incorporation was measured using a TopCount NXT™ Microplate Scintillation and Luminescence Counter (Packard Bioscience). Results expressed as a percentage of the proliferation of HMEC-1 not exposed to patient sera.

For test [2], the system named is histones. Nature of the test: Murine histone-induced deep vein thrombosis (DVT) model. Type of test: in vivo. As to conditions: mice, histones 10 mg kg^−1 i.v., compound 50 mg kg^−1 i.v., 48 h, FIG. 6c. On the procedure:
Murine deep vein thrombosis (DVT) model. The procedure used is largely as previously described (Brill, A. et al. Neutrophil extracellular traps promote deep vein thrombosis in mice. J Thromb Haemost 10, 136-144 (2012)). […] The peritoneum and skin were closed following which all mice received an i.v. injection of histones via the tail vein (10 mg kg^−1) or an equivalent volume of saline followed 5 min later by an i.v. injection of test compounds (50 mg kg^−1) or saline. Mice were monitored for 48 h after which they were re-anesthetized, re-opened and any thrombi that had developed distal to the IVC stenosis were removed for analysis. Sham operated control animals received laparotomy and 90% ligation of the IVC, however the ligation was removed immediately after occlusion of the IVC.

Test [3] deals with histones. Nature of the test: In-vivo histone toxicity assay. The note with it: mice; for Relative potency in protecting from histone-induced tissue pathologies / Protection from histone-induced liver damage, generalised tissue injury and kidney failure (circulating ALT, LDH, creatinine): FIG. 6a; for Protection from histone-induced liver damage, generalised tissue injury and kidney failure (circulating ALT, LDH, creatinine): compound i.p. 10 min prior to i.v. histones 50 mg kg^−1, blood 4 h post-histones, concentration-dependent. On the procedure:
In-vivo histone toxicity assays. BALB/c female mice (5-6 weeks of age), that are more prone to histone-induced anemia and easier to inject i.v. at this young age than C57BL/6 mice, were injected i.p. with test compounds at concentrations indicated 10 min prior to i.v. injection of histones (50 mg kg^−1) in phosphate buffered saline. Retro-orbital bleeds were performed with glass Pasteur pipettes 10 min after histone injection and collected blood added to acid citrate dextrose (ACD), the 10 min blood sample being subjected to hematologic analyses for platelet and erythrocyte content using an ADVIA 2120i Hematology Analyzer. Spleens were also harvested at 10 min post-histone injection and splenic hemoglobin content quantified using a hemoglobin assay kit (Sigma-Aldrich). In the case of 4 h blood samples, male C57/BL/6 mice (6-8 weeks of age) were injected with test compounds and histones as above and plasma isolated and stored frozen for subsequent biochemical testing, with markers for liver (alanine aminotransferase, ALT), kidney (creatinine, Crea) and general tissue (lactate dehydrogenase, LDH) damage being determined by the Department of Pathology, The Canberra Hospital.

Test [4] concerns histone-mediated RBC aggregation. The test is described as follows: Histone-mediated erythrocyte aggregation (flow cytometry, scanning EM). In kind it is cell-based, human. As for the experimental part:
Human erythrocytes (RBC) were incubated for 1 h at 37° C. alone (‘Saline’ control) or in the presence of histones (400 μg ml^−1) with or without mCBS (200 μg ml^−1). a, Percentage of RBC aggregation measured by flow cytometry based on forward (FSC) and side (SSC) scatter parameters and an appropriate gating strategy to discriminate aggregated from normal (non-aggregated) RBC. b, Scanning electron micrographs depicting level of RBC aggregation at low and high magnification following the three treatments depicted in (a). c, Concentration dependent inhibition of histone-mediated RBC aggregation by mCBS and MTS, in this case RBC aggregation being calculated by flow cytometry as fold increase in RBC auto-fluorescence relative to RBC in the absence of histones. The fold increase values also provide an estimate of the number of RBC in each aggregate. d, Retention of RBC in an artificial spleen that measures RBC deformability. RBC were incubated with increasing concentrations of histones for 1 h and, at the highest concentration used (400 μg ml^−1), also incubated with either mCBS or MTS (100 and 200 μg ml^−1), prior to passage through the artificial spleen. Data are mean±s.e.m. (n=3 biological replicates). ***P<0.001, ****P<0.0001 (one way ANOVA with Dunnett's multiple comparisons test).
In vitro erythrocyte microscopy, aggregation, fragility and deformability assays. […] J Biol Chem 289, 19531-19537 (2014)). Similarly, erythrocyte fragility induced by histones, in the presence or absence of inhibitors, was quantified using a sheer stress assay that we developed recently (Kordbacheh, F., O'Meara, C. H., Coupland, L. A., Lelliott, P. M. & Parish, C. R. Extracellular histones induce erythrocyte fragility and anemia. Blood 130, 2884-2888 (2017)). Finally, the reduced deformability of erythrocytes in the presence of histones and the effect of inhibitors on this process was assessed by measuring the passage of erythrocytes through an artificial human spleen (Kordbacheh, F., O'Meara, C. H., Coupland, L. A., Lelliott, P. M. & Parish, C. R. Extracellular histones induce erythrocyte fragility and anemia. Blood 130, 2884-2888 (2017); and Deplaine, G. et al. The sensing of poorly deformable red blood cells by the human spleen can be mimicked in vitro. Blood 117, e88-95 (2011)).

Results on two compounds are retold here after patent US12239650B2, “Compounds for treating and preventing net associated complications” (The Australian National University, priority 2019, dated 2025).

On to `O=S(=O)(O)OC[C@H]1O[C@@H](O[C@H]2[C@H](OS(=O)(=O)O)[C@@H](OS(=O)(=O)O)C(OS(=O)(=O)O)O[C@@H]2COS(=O)(=O)O)[C@H](OS(=O)(=O)O)[C@@H](OS(=O)(=O)O)[C@@H]1OS(=O)(=O)O` (some centres unmarked) [CBS, cellobiose per-O-sulfate], for which the “Effect on anti-proliferative activity of the 10 most inhibitory septic patient sera” value in test [1] is listed as “significantly overrode”. For the same compound, the “Inhibition of histone-mediated DVT” value with histones [2] is listed as “almost totally inhibited”. Also, in the test with histones [3], the “Relative potency in protecting from histone-induced tissue pathologies” value is “equally active”; the “Protection from histone-induced liver damage, generalised tissue injury and kidney failure (circulating ALT, LDH, creatinine)” value is listed as “protected”.

For the compound `O=S(=O)(O)OC[C@H]1O[C@H](O[C@H]2[C@H](OS(=O)(=O)O)[C@@H](OS(=O)(=O)O)C(OS(=O)(=O)O)O[C@@H]2COS(=O)(=O)O)[C@H](OS(=O)(=O)O)[C@@H](OS(=O)(=O)O)[C@@H]1O[C@H]1O[C@H](COS(=O)(=O)O)[C@@H](OS(=O)(=O)O)[C@H](OS(=O)(=O)O)[C@H]1OS(=O)(=O)O` (some centres unmarked) [MTS, maltotriose per-O-sulfate], the “Effect on anti-proliferative activity of the 10 most inhibitory septic patient sera” value in test [1] is “did not”. The “Inhibition of histone-mediated DVT” value in the test with histones [2] is on record as “almost totally inhibited”. Also, the “Histone-induced thrombocytopenia and anaemia” value in the test with histones [3] (100 mg kg^−1 i.p., 10 min post-histones, FIG. 6b) is “prevented”. In the test with histones [3], the “Relative potency in protecting from histone-induced tissue pathologies” value was “most potent”; the “Protection from histone-induced liver damage, generalised tissue injury and kidney failure (circulating ALT, LDH, creatinine)” value is on record as “protected”. In addition, the “Effectiveness of MTS relative to mCBS in preventing RBC aggregation” value in test [4] (FIG. 3c) is about 2 fold. Further, in test [4] (histones 400 μg ml^−1, FIG. 3c), the “Prevention of histone-mediated RBC aggregation (auto-fluorescence)” value is on record as “prevented aggregation in a concentration dependent manner”.
